Measured values reported in ChEMBL document CHEMBL5543108, “Structure-based design and synthesis of BML284 derivatives: A novel class of colchicine-site noncovalent tubulin degradation agents” (Eur J Med Chem, 2024).
Activity calls are given as the source filed them. The calls are words filed in the database; no cut-off is given here.

What was measured:
[1] = Half life in male Sprague-Dawley rat at 10 mg/kg, po; assay type: ADME, organism-based; details: in vivo
[2] = system: A2780/Taxol; experiment: Induction of cell cycle arrest in human A2780T cells assessed as accumulation of cells at S phase at 3 nM measured after 24 hrs by propidium iodide staining based analysis (reference value: 29.73%); assay type: functional
[3] = biological target: T1, Tubulin (Homo sapiens) (UniProt P68371+Q9H4B7+P0DPH7+P68366+Q13509+Q71U36+P04350+Q3ZCM7+P07437+P68363+Q9BQE3+Q6PEY2+Q13885+Q9BVA1+Q9BUF5); experiment: Induction of tubulin degradation in human HeLa cells at 1 uM measured after 24 hrs by immunoblot analysis; assay type: cell-based
[4] = system: A2780/Taxol; experiment: Induction of cell cycle arrest in human A2780T cells assessed as accumulation of cells at G0/G1 phase at 300 nM measured after 24 hrs by propidium iodide staining based analysis (reference value: 46.141%); assay type: functional
[5] = biological target: T1, Tubulin (Homo sapiens); experiment: Inhibition of tubulin polymerization (unknown origin) preincubated for 5 mins with compound followed by GTP addition and measured upto 40 mins; assay type: protein-complex assay; details: dose 5-10 µM, time <= 45.0 min
[6] = system: A2780S; experiment: Induction of cell cycle arrest in human A2780S cells assessed as accumulation of cells at G2/M phase at 10 nM measured after 24 hrs by propidium iodide staining based analysis (reference value: 18.43%); assay type: functional
[7] = system: A2780/Taxol; experiment: Induction of cell cycle arrest in human A2780T cells assessed as accumulation of cells at G2/M phase at 10 nM measured after 24 hrs by propidium iodide staining based analysis (reference value: 24.13%); assay type: functional
[8] = system: A2780S; experiment: Induction of cell cycle arrest in human A2780S cells assessed as accumulation of cells at S phase at 300 nM measured after 24 hrs by propidium iodide staining based analysis (reference value: 29.85%); assay type: functional
[9] = system: A2780/Taxol; experiment: Induction of apoptosis in human A2780T cells assessed as total number of late apoptotic cells at 100 nM measured after 48 hrs by Annexin-V-FITC and PI staining based flow cytometry analysis (reference value: 3.42%); assay type: functional
[10] = Toxicity in mouse xenografted with human A2780S cells assessed as effect on body weight at 10 to 30 mg/kg, iv measured upto 12 days; assay type: organism-based; details: in vivo, 288 h, dose 10-30 mg/kg, time < 12 day
[11] = system: A2780S; experiment: Induction of cell cycle arrest in human A2780S cells assessed as accumulation of cells at G2/M phase at 30 nM measured after 24 hrs by propidium iodide staining based analysis (reference value: 18.43%); assay type: functional
[12] = biological target: Tubulin beta (Homo sapiens) (UniProt P68371+Q9H4B7+Q13509+P04350+Q3ZCM7+P07437+Q13885+Q9BVA1+Q9BUF5+A6NNZ2); experiment: Binding affinity to beta-tubulin colchicine binding site in human HeLa cells assessed as inhibition of EBI-beta-tubulin adduct band formation by EBI competition based Western blot analysis; assay type: cell-based; details: dose 0.2-25 µM
[13] = Selectivity ratio of IC50 for human A2780T cells to IC50 for human A2780S
[14] = system: A2780/Taxol; experiment: Induction of cell cycle arrest in human A2780T cells assessed as accumulation of cells at G2/M phase at 3 nM measured after 24 hrs by propidium iodide staining based analysis (reference value: 24.13%); assay type: functional
[15] = Half life in male Sprague-Dawley rat at 10 mg/kg, iv; assay type: ADME, organism-based; details: in vivo
[16] = system: HUVEC; experiment: Antivascular activity against human HUVEC cells assessed as inhibition of capillary tube formation incubated for 24 hrs by microscopy based analysis; assay type: functional, cell-based
[17] = Selectivity ratio of IC50 for paclitaxel resistant human A549/Taxol cells to IC50 for human A549
[18] = system: A2780/Taxol; experiment: Induction of cell cycle arrest in human A2780T cells assessed as accumulation of cells at S phase at 300 nM measured after 24 hrs by propidium iodide staining based analysis (reference value: 29.73%); assay type: functional
[19] = Toxicity in mouse xenografted with human A2780T cells assessed as side effects at 10 to 30 mg/kg, iv measured upto 18 days; assay type: organism-based, A2780/Taxol; details: in vivo, 432 h, dose 10-30 mg/kg, time < 18 day
[20] = AUC (0 to t) in male Sprague-Dawley rat at 10 mg/kg, po; assay type: ADME, organism-based; details: in vivo
[21] = system: MOLM-13; experiment: Antiproliferative activity against human MOLM-13 cells assessed as reduction in cell viability measured after 72 hrs; assay type: functional, cell-based; details: MOLM-13, 72 h
[22] = system: HCT-116; experiment: cells; details: Homo sapiens, HCT-116, 72 h
Description: Antiproliferative activity against human HCT-116 cells assessed as reduction in cell viability measured after 72 hrs

[23] = system: A2780S; experiment: Induction of cell cycle arrest in human A2780S cells assessed as accumulation of cells at G0/G1 phase at 30 nM measured after 24 hrs by propidium iodide staining based analysis (reference value: 51.71%); assay type: functional
[24] = system: A2780S; experiment: Induction of cell cycle arrest in human A2780S cells assessed as accumulation of cells at G2/M phase at 100 nM measured after 24 hrs by propidium iodide staining based analysis (reference value: 18.43%); assay type: functional
[25] = Tmax in male Sprague-Dawley rat at 10 mg/kg, iv; assay type: ADME, organism-based; details: in vivo
[26] = system: A2780S; experiment: Induction of cell cycle arrest in human A2780S cells assessed as accumulation of cells at S phase at 10 nM measured after 24 hrs by propidium iodide staining based analysis (reference value: 29.85%); assay type: functional
[27] = system: A2780/Taxol; experiment: Antiproliferative activity against human A2780T cells assessed as reduction in cell viability measured after 72 hrs; assay type: functional, cell-based
[28] = system: A2780S; experiment: Antitumor activity against human A2780S cells xenografted in mouse model assessed as tumor growth inhibition at 10 mg/kg, iv administered every two days for 12 days relative to control; assay type: functional; details: 288 h, time 12 day, read-out: TGI
[29] = system: A2780/Taxol; experiment: Antitumor activity against human A2780T cells xenografted in mouse model assessed as tumor growth inhibition at 20 mg/kg, iv administered every two days for 18 days relative to control; assay type: functional; details: 432 h, time 18 day, read-out: TGI
[30] = system: A2780/Taxol; experiment: Induction of apoptosis in human A2780T cells assessed as total number of late apoptotic cells at 30 nM measured after 48 hrs by Annexin-V-FITC and PI staining based flow cytometry analysis (reference value: 3.42%); assay type: functional
[31] = system: A2780S; experiment: Antitumor activity against human A2780S cells xenografted in mouse model assessed as tumor growth inhibition at 20 mg/kg, iv administered every two days for 12 days relative to control; assay type: functional; details: 288 h, time 12 day, read-out: TGI
[32] = system: A2780/Taxol; experiment: Induction of cell cycle arrest in human A2780T cells assessed as accumulation of cells at S phase at 100 nM measured after 24 hrs by propidium iodide staining based analysis (reference value: 29.73%); assay type: functional
[33] = Toxicity in mouse xenografted with human A2780S cells assessed as side effects at 10 to 30 mg/kg, iv measured upto 12 days; assay type: organism-based; details: in vivo, 288 h, dose 10-30 mg/kg, time < 12 day
[34] = system: HUVEC; experiment: Antivascular activity against human HUVEC cells assessed as inhibition of capillary tube formation at 40 nM incubated for 6 hrs by microscopy based analysis relative to control; assay type: functional; parameters: scale not given: the % may be the effect or the level left
[35] = system: A2780S; experiment: Induction of apoptosis in human A2780S cells assessed as total number of late apoptotic cells at 100 nM measured after 48 hrs by Annexin-V-FITC and PI staining based flow cytometry analysis (reference value: 3.42%); assay type: functional

COc1cccc(-c2cc(NCc3ccc4[nH]ccc4c3)nc(N)n2)c1
half-life [1]: 5.94 h | Activity [2]: 29.77% | Activity [3]: Active | Activity [4]: 4.64% | inhibition [5]: Dose-Dependent Effect | Activity [6]: 22.16% | Activity [7]: 20.61% | Activity [8]: 16.35% | Activity [9]: 14.43% | Activity [10]: Non-Toxic | Activity [11]: 23.82% | Activity [12]: Dose-Dependent Effect | Ratio IC50 [13]: 0.89 | Activity [14]: 19.35% | half-life [15]: 1.93 h | IC50 [16]: 623 nM | Ratio IC50 [17]: 1.1 | Activity [18]: 11.38% | Activity [19]: Toxic | AUC(0-t) [20]: 447 ng·h/mL | IC50 [21]: 20 nM | IC50 [22]: 30 nM | Activity [23]: 48.16% | Activity [24]: 42.46% | Tmax [25]: 4.8 min | Activity [26]: 29.27% | IC50 [27]: 16 nM | inhibition in vivo at 10 mg/kg [28]: 45.3% | inhibition in vivo at 20 mg/kg [29]: 68.2% | Activity [30]: 5.29% | inhibition in vivo at 20 mg/kg [31]: 63.6% | Activity [32]: 9.12% | Activity [33]: Toxic | Activity [34]: 100% | Activity [35]: 14.43%
